Data: PMC2649369 (The Journal of neuroscience : the official journal of the …, 2007)

Tests used:
[1] = biological target: GABAA receptor α1Phe64 (α1Phe65 by human numbering) to Leu mutant; settings: cited from earlier work
[2] = system: GABAA receptors with phenylalanine mutations at β2Tyr157 and β2Tyr205; settings: phenylalanine mutants vs unmutated; ref Amin and Weiss, 1993; cited from earlier work
[3] = system: α1 65-3,4,5-F3-Phe β2 GABAA receptor; assay: GABA concentration-response, voltage-clamp in oocytes, α1 65-3,4,5-F3-Phe; assay type: cell-based, human
[4] = system: α1β2 97-3,5-F2-Phe GABAA receptor; assay: GABA concentration-response, voltage-clamp in oocytes, β2 97-3,5-F2-Phe; assay type: cell-based, human
[5] = system: α1β2 97-3,4,5-F3-Phe GABAA receptor; assay: GABA concentration-response, voltage-clamp in oocytes, β2 97-3,4,5-F3-Phe; assay type: cell-based, human
[6] = system: α1β2 157-3,5-F2-Phe GABAA receptor; assay: GABA concentration-response, voltage-clamp in oocytes, β2 157-3,5-F2-Phe; assay type: cell-based, human
[7] = system: α1β2 157-3,4,5-F3-Phe GABAA receptor; assay: GABA concentration-response, voltage-clamp in oocytes, β2 157-3,4,5-F3-Phe; assay type: cell-based, human
[8] = system: α1β2 157-4-Me-Phe GABAA receptor; assay: GABA concentration-response, voltage-clamp in oocytes, β2 157-4-Me-Phe; assay type: cell-based, human
[9] = system: α1β2 205-4-F-Phe GABAA receptor; assay: GABA concentration-response, voltage-clamp in oocytes, β2 205-4-F-Phe; assay type: cell-based, human
[10] = system: α1β2 205-3,5-F2-Phe GABAA receptor; assay: GABA concentration-response, voltage-clamp in oocytes, β2 205-3,5-F2-Phe; assay type: cell-based, human
[11] = system: α1β2 205-3,4,5-F3-Phe GABAA receptor; assay: GABA concentration-response, voltage-clamp in oocytes, β2 205-3,4,5-F3-Phe; assay type: cell-based, human

In the case of `CN1CCc2cc3c(cc2[C@H]1[C@@H]1OC(=O)c2c1ccc1c2OCO1)OCO3` [bicuculline], the “change of IC50 on mutation” value [1] is given as “increasing by similar amounts”.

In the case of `CCCC(C)C1(CC)C(=O)NC(=O)NC1=O` (centres unmarked) [pentobarbital], the “functional response on activation of the receptors” value [2] is given as “no change in functional response”.

With `NCCCC(=O)O` [GABA] the “nH (Hill coefficient)” value [3] was 1.5, the “nH (Hill coefficient)” value [4] was 1.1 and the “nH (Hill coefficient)” value [5] was 1.9. The “nH (Hill coefficient)” value [6] was 2.0, the “nH (Hill coefficient)” value [7] was 1.7 and the “nH (Hill coefficient)” value [8] was 0.8. The “nH (Hill coefficient)” value [9] was 1.9, the “nH (Hill coefficient)” value [10] was 1.9 and the “nH (Hill coefficient)” value [11] was 2.5.
